molecular target: Genome polyprotein (West Nile virus, UniProt P06935); assay: inhibitors of WNV NS2B-NS3 protease, dose response, biochemical, confirmation (AID 653)
Sequence (P06935 1371-1501 limits assumed): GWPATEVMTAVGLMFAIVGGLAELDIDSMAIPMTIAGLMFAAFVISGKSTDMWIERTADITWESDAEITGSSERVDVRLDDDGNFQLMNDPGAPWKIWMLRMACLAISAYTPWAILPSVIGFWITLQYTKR
Sequence (P06935 1502-2120 limits assumed): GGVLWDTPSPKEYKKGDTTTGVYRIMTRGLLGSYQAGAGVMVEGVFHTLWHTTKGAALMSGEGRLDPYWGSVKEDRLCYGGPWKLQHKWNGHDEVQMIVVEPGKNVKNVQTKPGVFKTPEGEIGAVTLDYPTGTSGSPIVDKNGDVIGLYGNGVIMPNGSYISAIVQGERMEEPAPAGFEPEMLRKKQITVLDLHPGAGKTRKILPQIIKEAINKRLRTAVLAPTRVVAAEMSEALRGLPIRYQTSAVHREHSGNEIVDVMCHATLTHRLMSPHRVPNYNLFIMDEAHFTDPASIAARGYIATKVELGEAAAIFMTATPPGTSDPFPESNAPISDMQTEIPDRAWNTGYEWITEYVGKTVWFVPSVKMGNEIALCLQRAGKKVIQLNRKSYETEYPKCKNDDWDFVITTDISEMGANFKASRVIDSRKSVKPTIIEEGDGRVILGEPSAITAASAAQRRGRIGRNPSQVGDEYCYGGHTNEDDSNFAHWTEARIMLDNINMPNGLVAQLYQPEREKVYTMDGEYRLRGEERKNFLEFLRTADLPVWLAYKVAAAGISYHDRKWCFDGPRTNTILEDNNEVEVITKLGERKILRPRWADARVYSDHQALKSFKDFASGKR

`COc1ccc(C2CC(c3cccc(C)c3)n3ncnc3N2)cc1` (stereo not drawn) [5-(4-methoxyphenyl)-7-(3-methylphenyl)-1,5,6,7-tetrahydro-[1,2,4]triazolo[1,5-a]pyrimidine] and `Cc1cccc(N(C)C(=S)Oc2ccc3ccccc3c2)c1` [MLS000028526] cannot be ordered by IC50: over 50 µM for the first, over 50 µM for the second.

Going from `Cc1ccccc1S(=O)(=O)Cc1ccc(C(=O)NCCCOC(C)C)o1` [5-[(2-methylphenyl)sulfonylmethyl]-N-(3-propan-2-yloxypropyl)-2-furancarboxamide] to `Cc1ccc(S(=O)(=O)n2nc(OC(=O)c3ccco3)cc2N)cc1` [MLS000033865], the IC50 falls from over 50 µM to 14.4 µM. The second is the more potent here.

`C=CCC1(CN2CCCCCC2=O)C(=O)NC(=O)NC1=O` [5-[(2-oxidanylideneazepan-1-yl)methyl]-5-prop-2-enyl-1,3-diazinane-2,4,6-trione] and `CCOC(=O)c1c(C)n(C)c2ccc(OC)c(NC(=O)CN3CCCCC3)c12` [5-methoxy-1,2-dimethyl-4-[(2-piperidinoacetyl)amino]indole-3-carboxylic acid ethyl ester] cannot be ordered by IC50: over 50 µM for the first, over 50 µM for the second.

First: COc1ccc(Br)cc1C=c1sc2nc(-c3ccco3)nn2c1=O [5-[(5-bromanyl-2-methoxy-phenyl)methylidene]-2-(furan-2-yl)-[1,3]thiazolo[3,2-b][1,2,4]triazol-6-one]
Second: COc1ccc(S(=O)(=O)n2nc(OC(=O)c3ccco3)cc2N)cc1 [MLS000033887]
The IC50 of the first is higher: over 50 µM for the first, 0.553 µM for the second. The second is the more potent here.

`COC(=O)c1ccc(CSc2nnc(SCc3ccc(C(=O)OC)o3)s2)o1` [5-[[[5-[(5-carbomethoxy-2-furyl)methylthio]-1,3,4-thiadiazol-2-yl]thio]methyl]furan-2-carboxylic acid methyl ester] and `COc1cc(C=CC(=O)CC(=O)C=Cc2ccc(O)c(OC)c2)ccc1O` [(1E,6E)-1,7-bis(4-hydroxy-3-methoxyphenyl)hepta-1,6-diene-3,5-dione] cannot be ordered by IC50: over 50 µM for the first, over 50 µM for the second.

First: Nc1cc(OC(=O)c2cccs2)nn1S(=O)(=O)c1ccc(F)cc1 [5-amino-1-[(4-fluorophenyl)sulfonyl]-1H-pyrazol-3-yl thiophene-2-carboxylate]
Second: COc1ccc(S(=O)(=O)n2nc(OC(=O)c3ccccc3)cc2N)cc1 [Benzoic acid 5-amino-1-(4-methoxy-benzenesulfonyl)-1H-pyrazol-3-yl ester]
The IC50 of the first is 11-fold higher: 1.16 µM for the first, 0.105 µM for the second. The second is the more potent here.

`Cn1c2ccccc2c2nn(-c3ccccc3)c(=O)cc21` [5-methyl-2-phenyl-3-pyridazino[4,3-b]indolone] and `CC(=O)Nc1nc2ccccc2n1CCOc1ccccc1Cl` [MLS000034055] cannot be ordered by IC50: over 50 µM for the first, over 50 µM for the second.

`COc1ccc(-c2cn3ccsc3n2)cc1` [6-(4-methoxyphenyl)imidazo[2,1-b][1,3]thiazole] and `Cc1ccc(OCC(=O)Nc2ccc(-c3nnc(-c4ccco4)o3)cc2)cc1` [MLS000039074] cannot be ordered by IC50: over 50 µM for the first, over 50 µM for the second.

Compared with `COc1ccc2c3c(cccc13)NN=C2C` [6-Methoxy-3-methyl-1H-benzo[de]cinnoline], `COc1ccc(/C=C(/C#N)c2cccnc2)cc1OC` [(E)-3-(3,4-dimethoxyphenyl)-2-(3-pyridinyl)-2-propenenitrile] is higher in IC50: 10.1 µM for the first, over 50 µM for the second. The first is the more potent here.

`Cc1csc2nc(CNC(=O)C3CC=CCC3C(=O)O)cn12` (stereo not drawn) [6-[(3-methylimidazo[2,1-b][1,3]thiazol-6-yl)methylcarbamoyl]cyclohex-3-ene-1-carboxylic acid] and `Cc1nn(-c2ccccc2)c2sc(C(=O)OC3CCOC3=O)cc12` (stereo not drawn) [(2-oxidanylideneoxolan-3-yl) 3-methyl-1-phenyl-thieno[2,3-c]pyrazole-5-carboxylate] cannot be ordered by IC50: over 50 µM for the first, over 50 µM for the second.

`COc1cc(C2CC(C(F)(F)F)n3ncc(C(=O)O)c3N2)cc(OC)c1OC` (stereo not drawn) [7-(trifluoromethyl)-5-(3,4,5-trimethoxyphenyl)-1,5,6,7-tetrahydropyrazolo[1,5-a]pyrimidine-3-carboxylic acid] and `CCN1CCN(C(=O)C2c3cc(OC)c(OC)cc3C(=O)N3CCc4ccccc4C23)CC1` (stereo not drawn) [13-(4-ethylpiperazin-1-yl)carbonyl-10,11-dimethoxy-5,6,13,13a-tetrahydroisoquinolino[2,1-b]isoquinolin-8-one] cannot be ordered by IC50: over 50 µM for the first, over 50 µM for the second.

Going from `Cc1oc2c(CN(C)C)c(O)ccc2c(=O)c1-c1ccc2ccccc2n1` [8-[(dimethylamino)methyl]-2-methyl-7-oxidanyl-3-quinolin-2-yl-chromen-4-one] to `CCn1c(SCC(=O)Nc2ccc3c(c2)c2ccccc2n3CC)nnc1-c1ccco1` [MLS000050867], the IC50 falls from over 50 µM to 47.7 µM.

`CN1CCN(CC(=O)N2c3ccccc3C(=O)Nc3cccnc32)CC1` [11-[(4-methylpiperazin-1-yl)acetyl]-5,11-dihydro-6H-pyrido[2,3-b][1,4]benzodiazepin-6-one] and `O=C(c1ccco1)N(CCCN1CCOCC1)c1nc(-c2ccc(Cl)cc2)cs1` [Furan-2-carboxylic acid [4-(4-chloro-phenyl)-thiazol-2-yl]-(3-morpholin-4-yl-propyl)-amide] cannot be ordered by IC50: over 50 µM for the first, over 50 µM for the second.

`CCCCc1oc2ccccc2c1C(=O)c1cc(I)c(OCCN(CC)CC)c(I)c1` [(2-{4-[(2-butyl-1-benzofuran-3-yl)carbonyl]-2,6-diiodophenoxy}ethyl)diethylamine] and `COc1ccccc1-n1c(C)nnc1SCC(=O)Nc1cc(C)cc(C)c1` [MLS000032151] cannot be ordered by IC50: over 50 µM for the first, over 50 µM for the second.

`CN(C)/C=C1/Sc2ccccc2C1=O` [(2E)-2-(dimethylaminomethylene)benzothiophen-3-one] and `CC[N+](C)(C)c1cccc(O)c1` [Edrophonium Chloride, 3] cannot be ordered by IC50: over 50 µM for the first, over 50 µM for the second.

`CCCCOCCCNC(=O)N[C@@H](CC(C)C)C(=O)O` [(2S)-2-(3-butoxypropylcarbamoylamino)-4-methyl-pentanoic acid] and `CCCCC[C@H](O)C=C[C@H]1C=CC(=O)[C@@H]1C/C=C\CCCC(=O)O` [(Z)-7-[(1R,5S)-2-oxidanylidene-5-[(E,3S)-3-oxidanyloct-1-enyl]cyclopent-3-en-1-yl]hept-5-enoic acid] cannot be ordered by IC50: over 50 µM for the first, over 50 µM for the second.

`CNC(=O)Oc1ccc2c(c1)[C@]1(C)CCN(C)[C@@H]1N2C` [(3aS,8aR)-1,3a,8-trimethyl-1H,2H,3H,3aH,8H,8aH-pyrrolo[2,3-b]indol-5-yl N-methylcarbamate; 2-hydroxybenzoic acid] and `COc1ccc(C2C3=C(CC(C)(C)CC3=O)Oc3ncn4nc(-c5cccnc5)nc4c32)cc1OC` (stereo not drawn) [MLS000040750] cannot be ordered by IC50: over 50 µM for the first, over 50 µM for the second.

`COP(=O)(OC)C(O)C(Cl)(Cl)Cl` (stereo not drawn) [(+-)-Trichlorfon] and `CC(C)(S)[C@@H](N)C(=O)O` [MLS000028669] cannot be ordered by IC50: over 50 µM for the first, over 50 µM for the second.

`N#[N+][CH-]C(=O)OCC(N)C(=O)O` [(E)-1-[(2S)-2-amino-2-carboxy-ethoxy]-2-diazonio-ethenolate] and `CCn1nc(C(=O)O)c(=O)c2cc3c(cc21)OCO3` [CINOXACIN] cannot be ordered by IC50: over 50 µM for the first, over 50 µM for the second.

`CN(C)c1nc(N(C)C)nc(N(C)C)n1` [ALTRETAMINE] and `CCC(=O)O[C@]1(C(=O)CCl)[C@@H](C)C[C@H]2[C@@H]3CCC4=CC(=O)C=C[C@]4(C)[C@@]3(F)[C@@H](O)C[C@@]21C` [MLS000028708] cannot be ordered by IC50: over 50 µM for the first, over 50 µM for the second.

`CCCC(CCC)C(=O)OC1C[C@H]2CC[C@@H](C1)[N+]2(C)C` (stereo partly drawn) [ANISOTROPINE METHYLBROMIDE] and `CCOc1ccccc1N(CC(=O)NC1CCCC1)C(=O)CCC(=O)Nc1cc(C)on1` [MLS000032086] cannot be ordered by IC50: over 50 µM for the first, over 50 µM for the second.

Work on `NS(=O)(=O)c1cc2c(cc1Cl)N=CNS2(=O)=O` [MLS000028398] yielded an IC50 of over 50 µM.
